# Measurements as given in US20230103549A1, “OVERLAPPING THERAPEUTIC STRATEGIES FOR CYSTINOSIS TREATMENT AND COSMETIC SKIN DARKENING” (Whitehead Institute for Biomedical Research, priority 2019, published 2023).
# Tests used:
# [1] = molecular target: T1, MFSD12 (Homo sapiens, UniProt Q6NUT3); experiment: Cysteine uptake assay into isolated lysosomes; format: biochemical; settings: 500 μM unlabeled cysteine; lysosomes from HEK-293T cells; 15-minute transport assay
# T1 construct: isolate large quantities of lysosomes from wild-type and MFSD12 knock-out HEK-293T cells; endogenous in cells; host or cells: suspension-adapted HEK-293T cells; lysosomes purified by differential and OptiPrep gradient centrifugation
# Protocol: Lysosomal purification protocols were adapted from previous protocols (Graham, 2001). 500 million suspension-adapted HEK-293T cells were spun down, washed in ice-cold PBS, and resuspended in 15 mL homogenization buffer (250 mM sucrose; 20 mM HEPES, pH 7.4; 1 mM EDTA) supplemented with protease inhibitor tablets (Roche). Cells were dounced 10 times in a lose fitting glass dounce and the resulting lysate was centrifuged at 1,500×g for 10 minutes at 4° C. After transferring the supernatant, 15 mL homogenization buffer was used to resuspend the pellet, and douncing and centrifugation were repeated. Supernatants from three successive rounds of homogenization and centrifugation were pooled and centrifuged a final time before transferring ‘post-nuclear supernatant’ to the subsequent step. ‘Post-nuclear supernatant’ was centrifuged at 20,000×g for 10 minutes at 4° C. to pellet organelles. To further wash organelles, the pellet was resuspended in 45 mL homogenization buffer and spun again at 20,000×g for 10 minutes at 4° C. The resulting pellet or ‘light mitochondrial fraction’ was resuspended in 9% OptiPrep (Thermo Fisher) prepared in Dilution Buffer (250 mM sucrose; 40 mM HEPES, pH 7.4; 2 mM EDTA) and overlaid on top of a discontinuous gradient of 18, 16, 14, 12, and 10% OptiPrep prepared in Dilution Buffer. […]
# [2] = molecular target: T2, plasma membrane-localized MFSD12 (Homo sapiens, UniProt Q6NUT3, DEL167-169/L256A/L257A/Y182H); experiment: Plasma membrane cellular cysteine uptake assay (MFSD12^PM); format: cell-based; settings: HEK-293T cells expressing MFSD12^PM; 500 μM cold cysteine for competition
# T2 construct: expressed in transfected cells; host or cells: HEK-293T cells transiently transfected with the pRK5-HA-MFSD12 LL253-254AA plasmid (PEI)
# Protocol: 3 million HEK-293T cells were plated in 10 cm dishes. Cells were transfected with 3 μg of plasmid with PEI (3 μg per 1 μg plasmid) and scraped 48 hours post-transfection into ice cold KPBS. After washing twice, cells were resuspended in LysoBuffer supplemented with 2.5 μM Erastin (MilliporeSigma), 4 mM leucine, and 3 mM serine. Assays were started with the addition of cold cysteine (10 μM for transport conditions and 500 μM for competition) and 50 μCi/mL (<100 pM) [^35S]-cysteine. Samples were incubated at 30° C. and aliquots were taken at indicated time points. Aliquoted cells were harvested by centrifugation at 1,000×g for 30 seconds at 4° C. and washed twice in ice-cold PBS. Cell pellets were resuspended in water before mixing into scintillation fluid and measuring scintillation counts (TriCarb T9000TR, Perkin-Elmer).
# T1 sequence (Q6NUT3 whole entry): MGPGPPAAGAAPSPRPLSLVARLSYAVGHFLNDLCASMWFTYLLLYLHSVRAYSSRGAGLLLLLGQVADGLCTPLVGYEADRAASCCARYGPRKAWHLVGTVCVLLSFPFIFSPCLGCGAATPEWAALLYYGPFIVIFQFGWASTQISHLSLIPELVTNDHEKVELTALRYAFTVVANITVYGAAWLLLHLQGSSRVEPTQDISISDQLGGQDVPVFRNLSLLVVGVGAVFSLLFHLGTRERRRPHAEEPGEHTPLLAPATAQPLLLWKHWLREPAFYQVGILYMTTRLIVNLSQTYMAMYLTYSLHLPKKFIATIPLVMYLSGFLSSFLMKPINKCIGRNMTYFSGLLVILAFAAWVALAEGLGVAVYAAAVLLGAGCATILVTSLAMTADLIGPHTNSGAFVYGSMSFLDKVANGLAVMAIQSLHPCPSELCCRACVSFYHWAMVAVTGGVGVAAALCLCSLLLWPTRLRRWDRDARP
# T2 sequence (Q6NUT3 with tags, fused parts or gaps DEL167-169/Y182H/L256A/L257A): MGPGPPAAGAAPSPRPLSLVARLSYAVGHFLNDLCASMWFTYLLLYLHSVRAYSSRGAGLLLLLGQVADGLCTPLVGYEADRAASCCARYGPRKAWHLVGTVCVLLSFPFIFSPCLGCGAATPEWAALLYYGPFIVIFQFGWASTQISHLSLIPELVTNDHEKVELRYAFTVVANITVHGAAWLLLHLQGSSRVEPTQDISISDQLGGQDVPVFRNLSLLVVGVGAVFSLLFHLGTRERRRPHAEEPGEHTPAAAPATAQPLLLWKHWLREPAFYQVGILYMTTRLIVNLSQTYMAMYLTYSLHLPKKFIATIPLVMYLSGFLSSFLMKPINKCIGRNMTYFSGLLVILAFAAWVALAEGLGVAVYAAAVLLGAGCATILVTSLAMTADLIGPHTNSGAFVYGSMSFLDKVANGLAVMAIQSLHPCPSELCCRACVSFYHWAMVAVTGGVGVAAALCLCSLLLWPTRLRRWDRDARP
compound,measurement,setting,value
N[C@@H](CS)C(=O)O [cysteine],competition of [35S]-cysteine signal in lysosomes,[1],reduce the [^35S] signal in lysosomes having MFSD12 to the same level as those in lysosomes lacking it
same,competition of MFSD12-induced [35S]-cysteine transport,[2],completely competed
